Measured values taken from the supplement of paper PMC11208160.

Assay: recombinant barcode read abundance after kanamycin selection (control-corrected) (log10(CPM+1)); higher = more efficient recombination; sequences stand for … in AGTGCAGAGAAAATCGGCCAGTTTTCTCTGCCTGCAGTCCGCATGCCGT…AGATTTATGCAGCGGACTGCCTTTCTCCCAAAGTGATAAACCGGACAGTATCATGGACCGGTTTTCCCGGTAATCCGTATTTGCAAGGTTGGTTTCACT; site = the 11-nt target
Experimental: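 Pooled E. coli target-specificity screen for the IS621 bridge recombinase. Each library plasmid pairs an 11-nt target (CT core) with a bridge RNA whose target-binding loop (9-nt LTG + 4-nt RTG) is reprogrammed; the rest of the 177-nt WT IS621 bridge RNA scaffold is fixed. The plasmid is co-electroporated with a WT donor plasmid; recombinase is induced with 0.1 mM IPTG and recombinants are selected on kanamycin. Recombinant barcodes are sequenced, converted to CPM, averaged over two biological replicates and corrected by the unselected control CPM. Molecule = full bridge RNA written as DNA: LTG = specificity nt 1-9, RTG = reverse complement of specificity nt 8-11, in the WT scaffold.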
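Also: IS621 recombinase and bridge RNA in Escherichia coli cells.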

Sequence	recombinant barcode read abundance (log10)
AACTAAACTTGGGTTCTAACCTGTTGCCT (site AACTAAACTAG)	1.02
AACTAAACTTGGGTTCTAACCTGTTGCCT (site AACTCAACTAG)	0.0768
AACTAAACTTGGGTTCTAACCTGTTGCCT (site AACTGAACTAG)	0.181
AACTAAACTTGGGTTCTAACCTGTTGCCT (site AACTTAACTAG)	0.0783
AACTATCCTTGGGTTCTAACCTGTTGCAT (site AACTATCCTAT)	0.227
AACTATCCTTGGGTTCTAACCTGTTGCAT (site AACTCTCCTAT)	0.109
AACTATCCTTGGGTTCTAACCTGTTGCAT (site AACTGTCCTAT)	0.00638
AACTATCCTTGGGTTCTAACCTGTTGCAT (site AACTTTCCTAT)	0.196
AAGACAACTTGGGTTCTAACCTGTTGCGG (site AAGACAACTCC)	1.64
AAGACAACTTGGGTTCTAACCTGTTGCGG (site TGCCTGCCTAG)	0.042
AAGACTCCTTGGGTTCTAACCTGTTGCCT (site AAGACTCCTAG)	0.824
AAGACTCCTTGGGTTCTAACCTGTTGCCT (site AAGTCTCCTAG)	0.0612
AAGAGCACTTGGGTTCTAACCTGTTGCCT (site AAGAGCACTAG)	1.17
AAGAGCACTTGGGTTCTAACCTGTTGCCT (site CAGAGCACTAG)	0.0257
AAGAGCACTTGGGTTCTAACCTGTTGCCT (site GAGAGCACTAG)	0.0862
AAGAGCACTTGGGTTCTAACCTGTTGCCT (site TAGAGCACTAG)	0.315
AAGATAGCTTGGGTTCTAACCTGTTGCCT (site AAGAAAGCTAG)	0.192
AAGATAGCTTGGGTTCTAACCTGTTGCCT (site AAGACAGCTAG)	0.147
AAGATAGCTTGGGTTCTAACCTGTTGCCT (site AAGAGAGCTAG)	0.164
AAGATAGCTTGGGTTCTAACCTGTTGCCT (site AAGATAGCTAG)	1.59
AAGCCCACTTGGGTTCTAACCTGTTGCGG (site AAGCCCACTCC)	2.28

Sequence	recombinant barcode read abundance (log10)
AAGCCCACTTGGGTTCTAACCTGTTGCGG (site CGCGTTGCTAG)	0.561
AAGCCGCCTTGGGTTCTAACCTGTTGCTT (site AAGCCGCCTAA)	0.906
AAGCCGCCTTGGGTTCTAACCTGTTGCTT (site TCAATAGCTGT)	0.35
AAGCTCCCTTGGGTTCTAACCTGTTGCCT (site AAGCTCCCTAG)	1.6
AAGCTCCCTTGGGTTCTAACCTGTTGCCT (site ACACTCCCTAG)	0.242
AAGGCCGCTTGGGTTCTAACCTGTTGCCT (site AAGGACGCTAG)	1.37
AAGGCCGCTTGGGTTCTAACCTGTTGCCT (site AAGGCCGCTAG)	1.79
AAGGCCGCTTGGGTTCTAACCTGTTGCCT (site AAGGGCGCTAG)	0.161
AAGGCCGCTTGGGTTCTAACCTGTTGCCT (site AAGGTCGCTAG)	0.259
AAGGCGCCTTGGGTTCTAACCTGTTGCCT (site AAGGCGCCTAG)	0.806
AAGGCGCCTTGGGTTCTAACCTGTTGCCT (site ACGGCGCCTAG)	0.11
AAGGCGCCTTGGGTTCTAACCTGTTGCCT (site AGGGCGCCTAG)	0.128
AAGGCGCCTTGGGTTCTAACCTGTTGCCT (site ATGGCGCCTAG)	0.135
AAGGGCTCTTGGGTTCTAACCTGTTGCTT (site AAGGGCTCTAA)	2.72
AAGGGCTCTTGGGTTCTAACCTGTTGCTT (site GTCTCTCCTCT)	0.129
AAGGTCCCTTGGGTTCTAACCTGTTGCGG (site AAGGTCCCTCC)	3.32
AAGGTCCCTTGGGTTCTAACCTGTTGCGG (site TAGGTCCCTTC)	0.0703
AAGGTGTCTTGGGTTCTAACCTGTTGCCT (site AAAGTGTCTAG)	1.97
AAGGTGTCTTGGGTTCTAACCTGTTGCCT (site AACGTGTCTAG)	0.736
AAGGTGTCTTGGGTTCTAACCTGTTGCCT (site AAGGTGTCTAG)	3.29
AAGGTGTCTTGGGTTCTAACCTGTTGCCT (site AATGTGTCTAG)	0.45

Sequence	recombinant barcode read abundance (log10)
AAGTCCACTTGGGTTCTAACCTGTTGCTT (site AAGTCCACTAA)	0.856
AAGTCCACTTGGGTTCTAACCTGTTGCTT (site TAGTCCACTTA)	0.093
AAGTGGTCTTGGGTTCTAACCTGTTGCTA (site AAGTGGTCTTA)	1.46
AAGTGGTCTTGGGTTCTAACCTGTTGCTA (site TGAGTCCCTCT)	0
AAGTTGTCTTGGGTTCTAACCTGTTGCGT (site AAGTTGTCTAC)	2.77
AAGTTGTCTTGGGTTCTAACCTGTTGCGT (site CAGTTGTCTAG)	0.0897
AATACCACTTGGGTTCTAACCTGTTGCCT (site AATACCACTAG)	0.576
AATACCACTTGGGTTCTAACCTGTTGCCT (site AATCGCACTAG)	0.186
AATAGGACTTGGGTTCTAACCTGTTGCGC (site AATAGGACTGC)	1.76
AATAGGACTTGGGTTCTAACCTGTTGCGC (site ATTAGGACTTC)	0.0105
AATATAGCTTGGGTTCTAACCTGTTGCTA (site AATATAGCTTA)	0.0685
AATATAGCTTGGGTTCTAACCTGTTGCTA (site TTCCCCACTAG)	0
AATCGAGCTTGGGTTCTAACCTGTTGCGG (site AATCGAGCTCC)	1.82
AATCGAGCTTGGGTTCTAACCTGTTGCGG (site TCCGCTTCTAA)	0.0864
AATCTCCCTTGGGTTCTAACCTGTTGCCT (site AATATGCCTAG)	0.298
AATCTCCCTTGGGTTCTAACCTGTTGCCT (site AATCTCCCTAG)	1.07
AATGAATCTTGGGTTCTAACCTGTTGCCT (site AATGAATCTAG)	0.312
AATGAATCTTGGGTTCTAACCTGTTGCCT (site AATGCATCTAG)	0.255
AATGAATCTTGGGTTCTAACCTGTTGCCT (site AATGGATCTAG)	0.53
AATGAATCTTGGGTTCTAACCTGTTGCCT (site AATGTATCTAG)	0.301
AATGGGCCTTGGGTTCTAACCTGTTGCCT (site AATGGGACTAG)	0.131

Sequence	recombinant barcode read abundance (log10)
AATGGGCCTTGGGTTCTAACCTGTTGCCT (site AATGGGCCTAG)	0.273
AATGGGCCTTGGGTTCTAACCTGTTGCCT (site AATGGGGCTAG)	0.179
AATGGGCCTTGGGTTCTAACCTGTTGCCT (site AATGGGTCTAG)	0.201
AATGGGGCTTGGGTTCTAACCTGTTGCTG (site AATGGGGCTCA)	1.15
AATGGGGCTTGGGTTCTAACCTGTTGCTG (site TATGGAGCTCA)	0.0813
AATGTACCTTGGGTTCTAACCTGTTGCCT (site AATGTACCTAG)	1.89
AATGTACCTTGGGTTCTAACCTGTTGCCT (site CATGTACCTAG)	0.45
AATGTACCTTGGGTTCTAACCTGTTGCCT (site GATGTACCTAG)	0.0545
AATGTACCTTGGGTTCTAACCTGTTGCCT (site TATGTACCTAG)	1.27
AATGTGTCTTGGGTTCTAACCTGTTGCCT (site AAAGTGTCTAG)	0.663
AATGTGTCTTGGGTTCTAACCTGTTGCCT (site AACGTGTCTAG)	1.47
AATGTGTCTTGGGTTCTAACCTGTTGCCT (site AAGGTGTCTAG)	1.01
AATGTGTCTTGGGTTCTAACCTGTTGCCT (site AATGTGTCTAG)	2.59
AATTAGACTTGGGTTCTAACCTGTTGCCT (site AATTAGACTAG)	1.12
AATTAGACTTGGGTTCTAACCTGTTGCCT (site CATTAGACTAG)	0.152
AATTAGACTTGGGTTCTAACCTGTTGCCT (site GATTAGACTAG)	0.226
AATTAGACTTGGGTTCTAACCTGTTGCCT (site TATTAGACTAG)	0.125
AATTAGCCTTGGGTTCTAACCTGTTGCCT (site AATTAGCCTAG)	0.488
AATTAGCCTTGGGTTCTAACCTGTTGCCT (site GTGAGCACTTA)	0.185
